Assay results reported in patent publication US20080305559A1, “Non-Competitive Immunoassays to Detect Small Molecules” (priority 2005, published 2008).
Values joined by “and” are separate entries in the source; they are usually repeats but may differ in a detail not shown here. Equal values may be shown once. No end group written: not given here.

Tests used:
[1] = test system: anti-PBA polyclonal antibodies; test: Cross-reactivity of the noncompetitive phage ELISA for PBA; assay type: binding, rabbit; settings: for CR (%): % cross-reactivity=100×[SC50(PBA)/SC50(cross-reacting compound)]; for IC50: noncompetitive phage ELISA for PBA
Experimental: The specificity of the noncompetitive assay set up with the phage borne peptide was characterized by determining its cross-reactivity with structurally related pesticides. PBA concentrations in the 0-50 ng/ml range were used in the noncompetitive ELISAs. Data were normalized, and the molar compound concentration corresponding to the midpoint of the curve, (which corresponds to the concentration of analyte producing 50% saturation of the signal (SC50), was used to express the cross-reactivity of the assay according to the equation:
% cross−reactivity=100×[SC50(PBA)/SC50(cross−reacting compound)]

MoAb K4E7 [2] = settings: atrazine, Giersch 1993; cited from earlier work
MoAb K4E7 [3] = settings: atrazine; Cardozo et al. 2005; cited from earlier work
[4] = test system: atrazine-MoAb K4E7 immunocomplex; test: Noncompetitive phage assay (PHAIA) for atrazine; assay type: binding; settings: atrazine as analyte; MoAb K4E7 immobilized; phage borne peptides as tracers
Experimental: In this case, we used the MoAb K4E7 specific for atrazine. The conventional chemical hapten assay developed with this MoAb (see, e.g., Giersch, J Ag. Food Chem. 41: 1006-1011 (1993)) allows one to reach an IC50 of 0.5 ng/ml. We used the atrazine-MoAb K4E7 immunocomplex to select phage borne peptides that could be used to develop a noncompetitive assay. The protocols used for panning and assay set up were identical to those used for the molinate-MoAb 14D7 system described in Example 1 above. […] A short consensus sequence was identified: WFD. The consensus sequence can occur at position two or five of the random sequence. […]
Fifty μl per well of serial dilutions of molinate standard in PBST were dispensed into microtiter plates coated with MoAb 14D7, followed by the addition of 50 μl/well of the adequate dilution of the stabilized phage suspension. […] Absorbance values were fitted to a four-parameter logistic equation using the Genesis Lite 3.03 (Life Sciences (UK) Ltd.) package software. The lower detection limit (DL) of the assays was estimated as the analyte concentration corresponding to the absorbance equal to that of the zero standard plus three times its standard deviation).

MoAb 14D7 [5] = settings: molinate; Cardozo et al. 2005; cited from earlier work
MoAb 14D7 [6] = settings: molinate, Rufo et al. 2004; cited from earlier work
[7] = test system: molinate-MoAb 14D7 immunocomplex; test: Noncompetitive phage ELISA (PHAIA) for molinate; assay type: binding; settings: molinate as analyte, plates coated with MoAb 14D7, named phage borne peptide as tracer
Excerpt: In a similar way that the IC50 (the analyte concentration producing 50% inhibition) is used to denote the sensitivity of competitive methods, we refer to the concentration of analyte producing 50% saturation (SC50) in noncompetitive assays as a practical parameter to compare the sensitivity of our assays. […] For each of these clones, the assay conditions were optimized as described previously. […] These differences highlight the importance of the residues that flank the WDT consensus sequence of the selected peptides. This can be seen in the case of the S1 and S4 peptide sequences, which only differ in two amino acids and yield assays with SC50 of 5 and 32 ng/ml, respectively.
(§1) Nunc-Immuno™ Maxi-Sorp™ plates were coated with MoAb 14D7 or molinate-MoAb 14D7 immunocomplex as described previously. The wells were blocked with 5% skimmed milk PBS, and washed three times with PBST. One hundred μl/well of an overnight culture of individual amplified phage clones were dispensed into the wells. The microtiter plates where then incubated for 1 h at room temperature with gentle rocking. After washing three times with PBST, 100 μL of a 1/5000 dilution of horse radish peroxidase (HRP) labeled anti-M13 monoclonal antibody (Pharmacia, Uppsala) in PBST were added to each well. One hour later, the plates were thoroughly washed and 100 μl of peroxidase substrate (25 ml of 0.1 M citrate acetate buffer pH 5.5, 0.4 ml of 6 mg/ml DMSO solution of 3,3′,5,5′-tetramethylbenzidine, and 0.1 ml of 1% H2O2) were dispensed into each well. The enzymatic reaction was stopped after 15-20 min by the addition of 50 μl of 2 M H2SO4, and the absorbance at 450 nm (corrected at 600 nm) was read in a microtiter plate reader (Multiskan MS, Labsystems). The supernatants showing high readings in wells coated with the immunocomplex and low response in antibody coated wells were prepared as stabilized phage suspensions (see below), and use for further analysis. For checkerboard titration, 100 μl of variable concentrations of the antibody (0.3-2 μg/ml) were used for coating.
Fifty μl per well of serial dilutions of molinate standard in PBST were dispensed into microtiter plates coated with MoAb 14D7, followed by the addition of 50 μl/well of the adequate dilution of the stabilized phage suspension. The antibody concentration used for coating and the proper dilution of the phage suspension had been previously optimized by checkerboard experiments. After an hour incubation period at room temperature, the plates were washed and developed as previously described. Absorbance values were fitted to a four-parameter logistic equation using the Genesis Lite 3.03 (Life Sciences (UK) Ltd.) package software. The lower detection limit (DL) of the assays was estimated as the analyte concentration corresponding to the absorbance equal to that of the zero standard plus three times its standard deviation).

MoAb 14D7 [8] = test: Phage ELISA checkerboard titration: reactivity with the IC and the uncombined antibody; assay type: binding; settings: wide range of MoAb 14D7 coating densities, absence of molinate
Experimental: as §1

Compound: O=C(O)c1ccc(O)cc1 [4-Hydroxybenzoic acid]
- CR (%) [1]: 0%
- IC50 [1]: >0.1 µg/mL

Compound: CC1(C)C(C=C(Cl)Cl)C1C(=O)OC(C#N)c1cccc(Oc2ccccc2)c1 (stereo not drawn) [Cypermethrin]
- CR (%) [1]: 0%
- IC50 [1]: >0.1 µg/mL

Compound: CC(C)C(C(=O)OC(C#N)c1cccc(Oc2ccccc2)c1)c1ccc(Cl)cc1 (stereo not drawn) [Esfenvalerate]
- CR (%) [1]: 0%
- IC50 [1]: >0.1 µg/mL

Compound: O=C(O)CNC(=O)c1cccc(Oc2ccccc2)c1 [PBA-glycine conjugate]
- CR (%) [1]: 0%
- IC50 [1]: >0.1 µg/mL

Compound: CC1(C)C(C=C(Cl)Cl)C1C(=O)OCc1cccc(Oc2ccccc2)c1 (stereo not drawn) [Permethrin]
- CR (%) [1]: 0%
- IC50 [1]: >0.1 µg/mL

Compound: CCNc1nc(Cl)nc(NC(C)C)n1 [atrazine]
- IC50 of conventional chemical hapten assay (MoAb K4E7 [2]): 0.0005 µg/mL
- IC50 of competitive assay set up with the same antibody (MoAb K4E7 [3]): 0.00064 ± 6e-05 µg/mL
- SC50 [4]: 0.2 to 0.8 ng/mL

Compound: CCSC(=O)N1CCCCCC1 [molinate]
- IC50 of phage competitive assay (MoAb 14D7 [5]): 0.045 µg/mL
- IC50 of competitive assay set up with heterologous chemical haptens (MoAb 14D7 [6]): 69 ng/ml and 69.2±1.4 ng/ml

Compound: C N I W D T S G W C (CNIWDTSGWC; phage-displayed) [mH, phage clone from the mutagenesis library]
- SC50 (concentration of analyte producing 50% saturation) [7]: 27 ± 2.0 ng/mL

Compound: C N L W D T T G W C (CNLWDTTGWC; phage-displayed) [mF, phage clone from the mutagenesis library]
- SC50 (concentration of analyte producing 50% saturation) [7]: 11 ± 0.5 ng/mL

Compound: C N R W D T T G W C (CNRWDTTGWC; not fully specified (bridges); cysteine pairing not given here; also: phage-displayed on pVIII) [8M2]
- SC50 (concentration of analyte producing 50% saturation) [7]: 6.1 ± 0.3 ng/mL and 6.0 ± 0.3 ng/mL

Compound: C S I W D T T G W C (CSIWDTTGWC; phage-displayed) [mI12, phage clone from the mutagenesis library]
- SC50 (concentration of analyte producing 50% saturation) [7]: 8.1 ± 0.6 ng/mL

Compound: C S L W D T T G W C (CSLWDTTGWC; phage-displayed) [mA, phage clone from the mutagenesis library]
- residual reactivity with the free (uncombined) antibody (MoAb 14D7 [8]): little reactivity with the free antibody
- SC50 (concentration of analyte producing 50% saturation) [7]: 8.5 ± 0.5 ng/mL

Compound: C S T W D T T G W C (CSTWDTTGWC; also: phage-displayed on pVIII, cyclic, bridge not given here) [1M]
- SC50 (concentration of analyte producing 50% saturation) [7]: 5.0 ± 0.4 ng/mL
- SC50 (concentration of analyte producing 50% saturation) ([7]; listed as S1): 5 ng/mL

Compound: C S V W D T S G W C (CSVWDTSGWC; not fully specified (bridges); cysteine pairing not given here; also: phage-displayed) [10M2]
- SC50 (concentration of analyte producing 50% saturation) [7]: 32 ± 5 ng/mL and 32 ± 4.9 ng/mL
- SC50 (concentration of analyte producing 50% saturation) ([7]; listed as S4): 32 ng/mL

Compound: C S Y W D T T G W C (CSYWDTTGWC; phage-displayed) [mG, phage clone from the mutagenesis library]
- SC50 (concentration of analyte producing 50% saturation) [7]: 16 ± 0.7 ng/mL

Compound: CTPVRWFDMC (phage-displayed) [13A]
- SC50 [4]: 0.0511 ± 0.002 ng/mL
